Results: patent US20170122958A1, “Enzymes Functional Probes” (University of Dundee, priority 2013, published 2017)

Legend:
Test in all cases: DSF thermal shift
Format in all cases: binding
[1] = molecular target: T1, Brd2(2)*(Trp370Phe) (Homo sapiens, UniProt P25440, W370F); details: mutant
T1 construct: Plasmids of the eight single BET bromodomain constructs Brd2(1), Brd2(2), Brd3(1), Brd3(2); His6 (N); made in house; host or cells: E. coli BL21(DE3)
Method: (§1) DSF assays were performed on a LightCycler®480 from Roche or a Mx3005P Real Time PCR machine from Stratagene. […] SYPRO®Orange from Invitrogen Molecular Probes® was used as a reporter dye to monitor the denaturing process of the proteins. Samples were assayed on a 96-well plate with final protein concentrations of 2 μM for the LightCycler®480 and 6 μM for Mx3005P. Compounds were added at a final concentration of 10 μM for the LightCycler®480 and 30 μM for Mx3005P, while the tetra acetylated histone peptide was added to a final concentration of 100 μM and 300 μM respectively. […] The temperature was raised with a step of 0.6° C. per minute from 37° C. to 95° C. with the LightCycler®480 collecting 39 measurements per ° C., and 1° C. per minute from 25° C. to 95° C. with Mx3005P, collecting fluorescence readings at the end of each interval. Each sample was run in triplicates.
(§2) Collected data was analysed by IGOR Pro 6, a scientific software tool from Wave Metrics, Inc. Analysis was done following the recommendations of Niesen et al.. Fluorescence intensity was plotted as a function of temperature, generating a sigmoidal curve described by a two-state transition from folded to unfolded protein. Curves were fitted by the following sigmoidal equation: […]
(§3) A1 and A2 are the values of minimum and maximum intensities, respectively, x0 is the inflection point and dx is the rate. Fitted curves were differentiated in IGOR Pro 6 and the maximum of the first derivative was identified using the same program. These values correspond to the inflection points of the transition curves and thus to the melting temperatures of the proteins (Tm).

[2] = molecular target: T2, Brd2(2) (Homo sapiens, UniProt P25440); details: wild type
T2 construct: Plasmids of the eight single BET bromodomain constructs Brd2(1), Brd2(2), Brd3(1), Brd3(2); His6 (N); made in house; host or cells: E. coli BL21(DE3)
Method: as §1, §2, §3

[3] = molecular target: T3, Brd2(2)*(Trp370His) (Homo sapiens, UniProt P25440, W370H); details: mutant
T3 construct: Plasmids of the eight single BET bromodomain constructs Brd2(1), Brd2(2), Brd3(1), Brd3(2); His6 (N); made in house; host or cells: E. coli BL21(DE3)
Method: as §1, §2, §3

[4] = molecular target: T4, Brd2(1) (Homo sapiens, UniProt P25440); details: wild type
T4 construct: Plasmids of the eight single BET bromodomain constructs Brd2(1), Brd2(2), Brd3(1), Brd3(2); His6 (N); made in house; host or cells: E. coli BL21(DE3)
Method: as §1, §2, §3

[5] = molecular target: T5, Brd2(1)*(Trp097Phe) (Homo sapiens, UniProt P25440, W97F); details: mutant
T5 construct: Plasmids of the eight single BET bromodomain constructs Brd2(1), Brd2(2), Brd3(1), Brd3(2); His6 (N); made in house; host or cells: E. coli BL21(DE3)
Method: as §1, §2, §3

[6] = molecular target: T6, Brd2(1)*(Trp097His) (Homo sapiens, UniProt P25440, W97H); details: mutant
T6 construct: Plasmids of the eight single BET bromodomain constructs Brd2(1), Brd2(2), Brd3(1), Brd3(2); His6 (N); made in house; host or cells: E. coli BL21(DE3)
Method: as §1, §2, §3

[7] = molecular target: Brd2(1)*(Met165Ala) (Homo sapiens, UniProt P25440, M165A); parameters: Plasmids of the eight single BET bromodomain constructs Brd2(1), Brd2(2), Brd3(1), Brd3(2); His6 (N); made in house; host or cells: E. coli BL21(DE3); details: mutant
Method: (§4) DSF assays were performed on a LightCycler®480 from Roche or a Mx3005P Real Time PCR machine from Stratagene. Prior to DSF assays, frozen proteins were buffer exchanged using Vivaspin®6 concentrators with a 10 kDa cutoff on a Centrifuge 5430 from Eppendorf at a speed of 6000×g to remove glycerol and to buffer the proteins in 20 mM HEPES pH 7.5 at 25° C. and 100 mM NaCl. SYPRO®Orange from Invitrogen Molecular Probes® was used as a reporter dye to monitor the denaturing process of the proteins. Samples were assayed on a 96-well plate with final protein concentrations of 2 μM for the LightCycler®480 and 6 μM for Mx3005P. Compounds were added at a final concentration of 10 μM for the LightCycler®480 and 30 μM for Mx3005P, while the tetra acetylated histone peptide was added to a final concentration of 100 μM and 300 μM respectively. […] The temperature was raised with a step of 0.6° C. per minute from 37° C. to 95° C. with the LightCycler®480 collecting 39 measurements per ° C., and 1° C. per minute from 25° C. to 95° C. with Mx3005P, collecting fluorescence readings at the end of each interval. Each sample was run in triplicates.
as §2, §3

[8] = molecular target: T7, Brd2(2)*(Met438-Ala) (Homo sapiens, UniProt P25440, M438A); details: mutant
T7 construct: Plasmids of the eight single BET bromodomain constructs Brd2(1), Brd2(2), Brd3(1), Brd3(2); His6 (N); made in house; host or cells: E. coli BL21(DE3)
Method: as §4, §2, §3

[9] = molecular target: T8, Brd2(2)*(Met438-Leu) (Homo sapiens, UniProt P25440, M438L); details: mutant
T8 construct: Plasmids of the eight single BET bromodomain constructs Brd2(1), Brd2(2), Brd3(1), Brd3(2); His6 (N); made in house; host or cells: E. coli BL21(DE3)
Method: as §4, §2, §3

[10] = molecular target: T9, Brd2(1)*(Met165-Leu) (Homo sapiens, UniProt P25440, M165L); details: mutant
T9 construct: Plasmids of the eight single BET bromodomain constructs Brd2(1), Brd2(2), Brd3(1), Brd3(2); His6 (N); made in house; host or cells: E. coli BL21(DE3)
Method: as §4, §2, §3

T9 sequence (P25440 74-180 M165L limits assumed): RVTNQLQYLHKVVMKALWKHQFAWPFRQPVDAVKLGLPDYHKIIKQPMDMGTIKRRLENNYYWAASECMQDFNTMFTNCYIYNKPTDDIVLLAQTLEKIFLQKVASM
T6 sequence (P25440 74-180 W97H limits assumed): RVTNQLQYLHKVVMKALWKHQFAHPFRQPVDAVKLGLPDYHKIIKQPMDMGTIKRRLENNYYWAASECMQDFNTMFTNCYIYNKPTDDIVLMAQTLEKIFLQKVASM
T1 sequence (P25440 344-453 W370F limits assumed): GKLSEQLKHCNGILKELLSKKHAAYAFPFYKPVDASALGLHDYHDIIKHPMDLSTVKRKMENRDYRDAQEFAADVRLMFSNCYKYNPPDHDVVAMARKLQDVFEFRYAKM
T3 sequence (P25440 344-453 W370H limits assumed): as the sequence (P25440 344-453 W370F limits assumed) above, with F27H counted along it
T5 sequence (P25440 74-180 W97F limits assumed): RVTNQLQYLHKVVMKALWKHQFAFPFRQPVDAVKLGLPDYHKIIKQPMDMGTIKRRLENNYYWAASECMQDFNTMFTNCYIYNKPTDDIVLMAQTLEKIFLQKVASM
T7 sequence (P25440 344-453 M438A limits assumed): as the sequence (P25440 344-453 W370F limits assumed) above, with F27W, M95A counted along it
T8 sequence (P25440 344-453 M438L limits assumed): as the sequence (P25440 344-453 W370F limits assumed) above, with F27W, M95L counted along it
Sequence of Brd2(1)*(Met165Ala) (P25440 74-180 M165A limits assumed): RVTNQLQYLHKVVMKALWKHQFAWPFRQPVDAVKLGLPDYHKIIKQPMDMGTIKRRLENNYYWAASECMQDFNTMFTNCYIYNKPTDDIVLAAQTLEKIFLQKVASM
T2 sequence (P25440 344-453 limits assumed): as the sequence (P25440 344-453 W370F limits assumed) above, with F27W counted along it
T4 sequence (P25440 74-180 limits assumed): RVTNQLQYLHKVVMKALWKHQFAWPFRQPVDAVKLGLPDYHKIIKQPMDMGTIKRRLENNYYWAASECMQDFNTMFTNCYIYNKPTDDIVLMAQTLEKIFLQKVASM

Row | SMILES | Thermal stabilisation brd2(2)W370F [1] [°C] | ΔTm Brd2(2)*(Tryp370-Phe) [1] [K] | Thermal stabilisation brd2(2) [2] [°C] | ΔTm Brd2(2) [2] [K] | Thermal stabilisation brd2(2)W370H [3] [°C] | ΔTm Brd2(2)*(Tryp370-His) [3] [K] | Thermal stabilisation brd2(1) [4] [°C] | ΔTm Brd2(1) [4] [K] | Thermal stabilisation brd2(1)W097F [5] [°C] | ΔTm Brd2(1)*(Tryp097-Phe) [5] [K] | Thermal stabilisation brd2(1)W097H [6] [°C] | ΔTm Brd2(1)*(Tryp097-His) [6] [K] | ΔTm Brd2(1)*(Met165-Ala) [7] [K] | ΔTm Brd2(2)*(Met165-Ala) [8] [K] | ΔTm Brd2(2)*(Met165-Leu) [9] [K] | ΔTm Brd2(1)*(Met165-Leu) [10] [K]
1 | COC(=O)CC1N=C(c2ccc(Cl)cc2C)c2cc(OC)ccc2-n2c(C)nnc21 (racemic) [Compound 8, (+−)-methyl 2-(6-(4-chloro-2-methylphenyl)-8-methoxy-1-methyl-4H-benzo[f][1,2,4]triazolo[4,3-a][1,4]diazepin-4-yl)acetate] | 2.8 ± 0.1 | 2.8 ± 0.1 | 6.6 ± 0.2 | 6.6 ± 0.2 | 1.1 ± 0.2 | 1.1 ± 0.2 | 6.3 ± 0.1 | 6.3 ± 0.1 | 1.4 ± 0.2 | 1.4 ± 0.2 | 0.9 ± 0.3 | 0.9 ± 0.3 | – | – | – | –
2 | COC(=O)CC1N=C(c2ccc(Cl)c(C)c2)c2cc(OC)ccc2-n2c(C)nnc21 (racemic) [Compound 9, (+−)-methyl 2-(6-(4-chloro-3-methylphenyl)-8-methoxy-1-methyl-4H-benzo[f][1,2,4]triazolo[4,3-a][1,4]diazepin-4-yl)acetate] | 1.5 ± 0.0 | 1.5 ± 0.0 | 3.2 ± 0.1 | 3.2 ± 0.1 | 1.0 ± 0.3 | 1.0 ± 0.3 | 1.5 ± 0.2 | 1.5 ± 0.2 | −0.1 ± 0.2 | −0.1 ± 0.2 | 0.2 ± 0.2 | 0.2 ± 0.2 | – | – | – | –
3 | COC(=O)CC1N=C(c2cc(C)ccc2C)c2cc(OC)ccc2-n2c(C)nnc21 (racemic) [Compound 10, (+−)-methyl 2-(6-(2,5-dimethylphenyl)-8-methoxy-1-methyl-4H-benzo[f][1,2,4]triazolo[4,3-a][1,4]diazepin-4-yl)acetate] | 0.6 ± 0.1 | 0.6 ± 0.1 | 3.5 ± 0.1 | 3.5 ± 0.1 | −0.1 ± 0.1 | −0.1 ± 0.1 | 1.8 ± 0.2 | 1.8 ± 0.2 | 0.1 ± 0.2 | 0.1 ± 0.2 | −0.4 ± 0.3 | −0.4 ± 0.3 | – | – | – | –
4 | COC(=O)CC1N=C(c2cc(Cl)ccc2Cl)c2cc(OC)ccc2-n2c(C)nnc21 (centres unmarked) [Compound 17] | – | 0.3 ± 0.0 | – | 2.5 ± 0.2 | – | −0.4 ± 0.2 | – | 1.2 ± 0.2 | – | 0.0 ± 0.2 | – | −0.4 ± 0.2 | – | – | – | –
5 | Cc1cc(C)c(S(=O)(=O)Nc2ccc3c(c2)CN(C)C(=O)N3)c(C)c1 [Compound 42, 2,4,6-trimethyl-N-(3-methyl-2-oxo-1,2,3,4-tetrahydroquinazolin-6 yl)benzenesulfonamide] | – | 1.8 ± 0.2 | – | 2.7 ± 0.5 | – | 0.2 ± 0.2 | – | 0.7 ± 0.3 | – | 0.7 ± 0.2 | – | 0.2 ± 0.4 | – | – | – | –
6 | CN1Cc2cc(NS(=O)(=O)c3c(Cl)cccc3Cl)ccc2NC1=O [Compound 43, 2,6-dichloro-N-(3-methyl-2-oxo-1,2,3,4-tetrahydroquinazolin-6-yl)benzenesulfonamide] | – | 1.8 ± 0.3 | – | 0.6 ± 0.1 | – | 0.3 ± 0.1 | – | 1.2 ± 0.2 | – | 0.2 ± 0.3 | – | 0.2 ± 0.2 | – | – | – | –
7 | CN1Cc2cc(NS(=O)(=O)c3ccccc3-c3ccccc3)ccc2NC1=O [Compound 44, N-(3-methyl-2-oxo-1,2,3,4-tetrahydroquinazolin-6-yl)-[1,1′-biphenyl]-2-sulfonamide] | – | 2.2 ± 0.3 | – | 2.1 ± 0.4 | – | 0.5 ± 0.3 | – | 2.8 ± 0.4 | – | 1.8 ± 0.3 | – | 1.3 ± 0.2 | – | – | – | –
8 | Cc1cccc(Cl)c1S(=O)(=O)Nc1ccc2c(c1)CN(C)C(=O)N2 [Compound 45, 2-chloro-6-methyl-N-(3-methyl-2-oxo-1,2,3,4-tetrahydroquinazolin-6-yl)benzenesulfonamide] | – | 2.3 ± 0.1 | – | 5.3 ± 0.5 | – | 0.8 ± 0.1 | – | 3.9 ± 0.2 | – | – | – | 0.0 ± 0.3 | – | – | – | –
9 | CN1Cc2cc(NS(=O)(=O)c3ccc(C(C)(C)C)cc3)ccc2NC1=O [Compound 46, 4-(tert-butyl)-N-(3-methyl-2-oxo-1,2,3,4-tetrahydroquinazolin-6-yl)benzenesulfonamide] | – | – | – | 0.8 ± 0.1 | – | – | – | 1.1 ± 0.2 | – | – | – | – | 5.1 ± 0.2 | 2.5 ± 0.2 | 0.3 ± 0.2 | 0.1 ± 0.1
10 | COc1ccc(S(=O)(=O)Nc2ccc3c(c2)CN(C)C(=O)N3)cc1 [Compound 47, 4-methoxy-N-(3-methyl-2-oxo-1,2,3,4-tetrahydroquinazolin-6-yl)benzenesulfonamide] | – | – | – | 3.1 ± 0.4 | – | – | – | 2.4 ± 0.1 | – | – | – | – | 0.0 ± 0.3 | 1.6 ± 0.3 | 1.3 ± 0.2 | 0.1 ± 0.3
11 | CN1Cc2cc(NS(=O)(=O)c3ccc(-c4ccccc4)cc3)ccc2NC1=O [Compound 48, N-(3-methyl-2-oxo-1,2,3,4-tetrahydroquinazolin-6-yl)-[1,1′-biphenyl]-4-sulfonamide] | – | – | – | 0.0 ± 0.2 | – | – | – | 0.5 ± 0.2 | – | – | – | – | 1.5 ± 0.4 | 0.0 ± 0.1 | 0.0 ± 0.1 | 0.0 ± 0.1
12 | Cc1cc(C)cc(S(=O)(=O)Nc2ccc3c(c2)CN(C)C(=O)N3)c1 [Compound 49, 3,5-dimethyl-N-(3-methyl-2-oxo-1,2,3,4-tetrahydroquinazolin-6-yl)benzenesulfonamide] | – | – | – | 2.8 ± 0.2 | – | – | – | 2.6 ± 0.5 | – | – | – | – | 1.1 ± 0.5 | 2.5 ± 0.2 | 4.9 ± 0.3 | 4.1 ± 0.6
13 | COc1cc(C)ccc1S(=O)(=O)Nc1ccc2c(c1)CN(C)C(=O)N2 [Compound 52, 2-methoxy-4-methyl-N-(3-methyl-2-oxo-1,2,3,4-tetrahydroquinazolin-6-yl)benzenesulfonamide] | – | – | – | 2.8 ± 0.2 | – | – | – | 4.7 ± 0.2 | – | – | – | – | 1.2 ± 0.2 | 2.0 ± 0.2 | 2.4 ± 0.1 | 3.1 ± 0.2
